According to the NIST ThermoML archive (doi:10.1021/acs.jced.5b00385):
± gives the expanded uncertainty stated by the source.

Conditions: Liquid, Vibrating tube method

FCC(F)(F)F [1,1,1,2-tetrafluoroethane]
mass density (283.46 K, 1000 kPa): 1262.57 ± 0.38 kg/m3 | mass density (283.46 K, 5000 kPa): 1279.58 ± 0.4 kg/m3 | mass density (283.47 K, 10000 kPa): 1298.12 ± 0.44 kg/m3 | mass density (283.47 K, 20000 kPa): 1329.18 ± 0.54 kg/m3 | mass density (283.47 K, 40000 kPa): 1377.11 ± 0.84 kg/m3 | mass density (283.47 K, 60000 kPa): 1414.44 ± 1.2 kg/m3 | mass density (283.47 K, 80000 kPa): 1445.46 ± 1.7 kg/m3 | mass density (303.37 K, 10000 kPa): 1236.85 ± 0.42 kg/m3 | mass density (303.37 K, 20000 kPa): 1275.77 ± 0.5 kg/m3 | mass density (303.38 K, 1000 kPa): 1188.07 ± 0.37 kg/m3 | mass density (303.38 K, 5000 kPa): 1212.13 ± 0.38 kg/m3 | mass density (303.38 K, 40000 kPa): 1332.36 ± 0.78 kg/m3 | mass density (303.38 K, 60000 kPa): 1374.64 ± 1.1 kg/m3 | mass density (303.38 K, 80000 kPa): 1408.98 ± 1.7 kg/m3 | mass density (323.15 K, 3000 kPa): 1119.19 ± 0.37 kg/m3 | mass density (323.16 K, 5000 kPa): 1136.38 ± 0.37 kg/m3 | mass density (323.16 K, 10000 kPa): 1170.84 ± 0.4 kg/m3 | mass density (323.16 K, 20000 kPa): 1220.65 ± 0.48 kg/m3 | mass density (323.16 K, 40000 kPa): 1287.71 ± 0.75 kg/m3 | mass density (323.16 K, 60000 kPa): 1335.49 ± 1.1 kg/m3 | mass density (323.16 K, 80000 kPa): 1373.39 ± 1.7 kg/m3 | mass density (342.97 K, 3000 kPa): 1014.76 ± 0.36 kg/m3 | mass density (342.97 K, 5000 kPa): 1045.25 ± 0.36 kg/m3 | mass density (342.98 K, 10000 kPa): 1097.42 ± 0.39 kg/m3 | mass density (342.98 K, 20000 kPa): 1162.91 ± 0.46 kg/m3 | mass density (342.98 K, 40000 kPa): 1242.75 ± 0.73 kg/m3 | mass density (342.98 K, 80000 kPa): 1338.34 ± 1.7 kg/m3 | mass density (342.99 K, 60000 kPa): 1296.65 ± 1.1 kg/m3 | mass density (362.68 K, 5000 kPa): 922.4 ± 0.36 kg/m3 | mass density (362.68 K, 10000 kPa): 1013.83 ± 0.4 kg/m3 | mass density (362.68 K, 20000 kPa): 1102.6 ± 0.47 kg/m3 | mass density (362.68 K, 40000 kPa): 1197.86 ± 0.73 kg/m3 | mass density (362.68 K, 60000 kPa): 1258.47 ± 1.1 kg/m3 | mass density (362.68 K, 80000 kPa): 1304.15 ± 1.8 kg/m3
